Results reported in patent EP2718307B1, “BETA-HAIRPIN PEPTIDOMIMETICS AS CXC4 ANTAGONISTS” (Polyphor AG, priority 2011, dated 2012).
Like-named read-outs stand apart in the source and are kept apart here. Bridge positions count the residues as written; N and C are the ends. Square brackets hold non-standard residues; d marks the D form. Peptide text beside a SMILES is read from it. Lys(iPr) = CC(C)NCCCC[C@H](N)C(=O)O; Orn(iPr) = CC(C)NCCC[C@H](N)C(=O)O

How the values were obtained:
CXCR4 receptor = molecular target: T1, CXCR4 receptor (Homo sapiens, UniProt P61073); assay: Chemotactic assay (cell migration assay): response of Namalwa cells to an SDF-1 gradient; type: cell-based
T1 construct: Namalwa cells (CXCR4 natively expressing non-adherent cells, ATCC CRL-1432); host or cells: Namalwa cells
Protocol: Namalwa cells (CXCR4 natively expressing non-adherent cells, ATCC CRL-1432) were cultured in RPMI1640 plus 10% FBS, and pen/strept. HELA cells were maintained in RPMI1640 plus 10% FBS, pen/strept and 2 mM L-glutamine. Cos-7 cells were grown in DMEM medium with […] glucose supplemented with 10% FCS, pen/strept and 2 mM L-glutamine. All cell lines were grown at 37 °C at 5% CO2. Cell media, media supplements, PBS-buffer, HEPES, antibiotic/antimycotic, pen/strept, non essential amino acid, L-glutamine, β-mercaptoethanol and sera were purchased from Gibco (Pailsey, UK). All fine chemicals were supplied by Merck (Darmstadt, Germany).
The chemotactic response of Namalwa cells (ATCC CRL-1432) to a gradient of stromal cell-derived factor 1α (SDF-1) was measured using a modified Boyden chamber chemotaxis system (ChemoTx; Neuroprobe). In this system, the upper chamber of each well is separated from the lower chamber containing the chemoattractant SDF-1 by a polycarbonate membrane (5µm pore size). A circular area of that membrane in the region that covers each lower well is enclosed by a hydrophobic mask to retain the cell suspension within this area. The system was prepared by loading the bottom wells with aliquots of […] chemotaxis medium (RPMI 1640 without Phenol red + 0.5% BSA) comprising either appropriate serial dilutions of peptides or no peptide at all in combination with SDF-1 (0.9 nM) or without the chemoattractant. The membrane was placed over the bottom wells, and aliquots of 50 µL of a suspension of Namalwa cells (3.6 x 10^6 cells/mL) in chemotaxis medium, premixed with chemotaxis medium comprising either appropriate serial dilutions of peptides or no peptide at all, was delivered onto each of the hydrophobically limited regions of the upper surface of the membrane. The cells were allowed to migrate into the bottom chamber for 5 h at 37 °C in 5% CO2. After this period, the membrane was removed and its topside was carefully wiped and washed with PBS to eliminate non-migrated cells. Migrated cells were transferred using a "funnel" adaptor to a receiving 96-well plate and the cell number was determined by using the CyQuant™ NF cell proliferation assay (Invitrogen) based on the measurement of cellular DNA content via fluorescent dye binding. Following the manufacturer's directions, 50 µL of CyQuant™ dye reagent/HBSS buffer (1/500 [v/v]) were added to each well of the above mentioned receiving 96-well plate. After incubation for 0.5 h at room temperature the plate was sealed and the fluorescence intensity of each sample was measured by using a Wallac 1420 VICTOR^2™ plate reader (PerkinElmer) with excitation at 485 nm and emission detection at 535 nm. Finally, the data were normalized by using the controls and IC50-values were determined using GraphPad Prism™ (GraphPad) by fitting a logarithmic curve to the averaged datapoints.

[1] = system: human red blood cells (hRBC); assay: Hemolysis; type: cell-based
Protocol: The peptides were tested for their hemolytic activity against human red blood cells (hRBC). Fresh hRBC were washed four times with phosphate buffered saline (PBS) and centrifuged for 10 min at 3000 x g. Compounds (100 µM) were incubated with 20% hRBC (v/v) for 1 h at 37°C and shaking at 300 rpm. The final erythrocyte concentration was approximately 0.9 x 10^9 cells/mL. A value of 0% and 100% cell lysis, respectively, was determined by incubation of hRBC in the presence of PBS containing 0.001% acetic acid and 2.5% Triton X-100 in H2O respectively. The samples were centrifuged, the supernatants were 8-fold diluted in PBS buffer and the optical densities (OD) were measured at 540 nm. The 100% lyses value (OD540H2O) gave an OD540 of approximately 0.5-1.0. Percent hemolysis was calculated as follows: (OD540peptide/OD540H2O) x 100%. [formula]

[2] = Plasma stability, human plasma; type: in vitro ADME
Protocol: (§1) The stability of the peptides in human and mouse plasma was determined by applying the following method: 346.5 µL/deep well of freshly thawed human plasma (Basler Blutspende-dienst) and mouse plasma (Harlan Sera-Lab, UK), respectively, were spiked with 3.5 µL/well of compound dissolved in DMSO/H2O (90/10 [v/v], 1 mM, triplicate) and incubated at 37° C. At t = 0, 15, 30, 60, 120, 240 and 1440 min aliquots of 50 µL were transferred to filtration plate wells containing 150 µL/well of 2% formic acid in acetonitrile. Following shaking for 2 min the occurred suspensions were filtrated by vacuum. 100 µL of each filtrate were transferred to a propylene microtiter plate and dried under N2. The residual solids were reconstituted by adding 100 µL/well of water/acetonitrile, 95/5 (v/v) + 0.2% formic acid and analyzed by LC/MS as follows: Column: Waters, XBridge C18, mobile phases: (A) water + 0.1% formic acid and (B) acetonitrile/water, 95/5 (v/v) + 0.1% formic acid, gradient: 5%-100% (B) in 1.8 minutes, electrospray ionization, MRM detection (triple quadrupole). The peak areas were determined and triplicate values are averaged. The stability is expressed in percent of the initial value at t = 0. (tx/t0 x 100). By using the TREND function of EXCEL (Microsoft Office 2003) T1/2 were determined.

[3] = Plasma stability, mouse plasma; type: in vitro ADME
Protocol: as §1

[4] = Namalwa cells, SDF-1 0.9 nM, migration 5 h, read-out: IC50 [nM] ± SD, CXCR4 receptor

T1 sequence (P61073 whole entry): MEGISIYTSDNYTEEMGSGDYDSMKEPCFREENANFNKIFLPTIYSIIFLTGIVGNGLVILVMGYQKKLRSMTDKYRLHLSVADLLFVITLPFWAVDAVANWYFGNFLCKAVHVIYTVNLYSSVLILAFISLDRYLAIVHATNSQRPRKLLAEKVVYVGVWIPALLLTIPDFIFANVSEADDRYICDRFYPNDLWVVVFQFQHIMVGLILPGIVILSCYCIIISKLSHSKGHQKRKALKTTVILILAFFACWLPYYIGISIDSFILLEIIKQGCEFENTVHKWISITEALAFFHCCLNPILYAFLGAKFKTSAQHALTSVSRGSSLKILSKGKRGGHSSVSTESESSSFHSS

| Compound | IC50 (CXCR4 receptor; [4]) | Hemolysis at 100 µM ([1]; red cells of human, 1 h, 100) | Plasma stability human pl. T1/2 [2] | Plasma stability human pl. cpd left at 1440 min [2] | Plasma stability mouse pl. T1/2 [3] | Plasma stability mouse pl. cpd left at 1440 min [3] | IC50 (CXCR4 receptor) | Hemolysis at 100 µM ([1]; 100 µM, 20% hRBC, 1 h at 37°C) | Plasma stability human pl. T1/2 ([2]; human plasma, 37° C, last time point 1440 min) | Plasma stability mouse pl. T1/2 ([3]; mouse plasma, 37° C, last time point 1440 min) |
| --- | --- | --- | --- | --- | --- | --- | --- | --- | --- | --- |
| CC(C)NCCCC[C@@H]1NC(=O)[C@H](CCC(N)=O)NC(=O)[C@H](Cc2ccc(O)cc2)NC(=O)[C@@H]2CSSC[C@H](NC(=O)[C@H](Cc3ccc(O)cc3)NC(=O)[C@H](Cc3c[nH]cn3)NC(=O)[C@H](Cc3ccc(O)cc3)NC(=O)[C@@H]3CCCN3C(=O)[C@H]3CCCN3C1=O)C(=O)N[C@@H](CO)C(=O)N[C@@H](C)C(=O)N1CCC[C@@H]1C(=O)N[C@@H](CCCNC(C)C)C(=O)N[C@@H](CCCNC(=N)N)C(=O)N[C@@H](Cc1ccc(O)cc1)C(=O)N2 [Ex. 1, cyclo(-Tyr^1-His^2-Tyr^3-Cys^4-Ser^5-Ala^6-^DPro^7-Orn(iPr)^8-Arg^9-Tyr^10-Cys^11-Tyr^12-Gln^13-Lys(iPr)^14-^DPro^15-Pro^16-), disulfide bond between Cys^4 and Cys^11] (cyclo(YHYCSA[dP][Orn(iPr)]RYCYQ[Lys(iPr)][dP]P); disulfide 4-11) | 0.42 ± 0.1 nM | 1.0% | 24 h | 77% | 24 h | 100% | – | – | – | – |
| COc1ccc(C[C@@H]2NC(=O)[C@H](Cc3c[nH]cn3)NC(=O)[C@H](Cc3ccc(O)cc3)NC(=O)[C@@H]3CCCN3C(=O)[C@H]3CCCN3C(=O)[C@H](CCCCNC(C)C)NC(=O)[C@H](CCC(N)=O)NC(=O)[C@H](Cc3ccc(O)cc3)NC(=O)[C@@H]3CSSC[C@H](NC2=O)C(=O)N[C@@H](CO)C(=O)N[C@@H](C)C(=O)N2CCC[C@@H]2C(=O)N[C@@H](CCCNC(C)C)C(=O)N[C@@H](CCCNC(=N)N)C(=O)N[C@@H](Cc2ccc(O)cc2)C(=O)N3)cc1 [Ex. 2, cyclo(-Tyr^1-His^2-Tyr(Me)^3-Cys^4-Ser^5-Ala^6-^DPro^7-Orn(iPr)^8-Arg^9-Tyr^10-Cys^11-Tyr^12-Gln^13-Lys(iPr)^14-^DPro^15-Pro^16-), disulfide bond between Cys^4 and Cys^11] (cyclo(YHY(Me)CSA[dP][Orn(iPr)]RYCYQ[Lys(iPr)][dP]P); disulfide 4-11) | 0.69 ± 0.43 nM | 1.0% | 24 h | 100% | 24 h | 100% | – | – | – | – |
| COc1ccc(C[C@H]2NC(=O)[C@H](C)NC(=O)[C@H](CO)NC(=O)[C@@H]3CSSC[C@H](NC(=O)[C@H](Cc4ccc(O)cc4)NC(=O)[C@H](CCCNC(=N)N)NC(=O)[C@H](CCCNC(C)C)NC2=O)C(=O)N[C@@H](Cc2ccc(O)cc2)C(=O)N[C@@H](CCC(N)=O)C(=O)N[C@@H](CCCCNC(C)C)C(=O)N2CCC[C@@H]2C(=O)N2CCC[C@H]2C(=O)N[C@@H](Cc2ccc(O)cc2)C(=O)N[C@@H](Cc2c[nH]cn2)C(=O)N[C@@H](C)C(=O)N3)cc1 [Ex. 4, cyclo(-Tyr^1-His^2-Ala^3-Cys^4-Ser^5-Ala^6-^DTyr(Me)^7-Orn(iPr)^8-Arg^9-Tyr^10-Cys^11-Tyr^12-Gln^13-Lys(iPr)^14-^DPro^15-Pro^16-), disulfide bond between Cys^4 and Cys^11] (cyclo(YHACSA[dY](Me)[Orn(iPr)]RYCYQ[Lys(iPr)][dP]P); disulfide 4-11) | 0.18 ± 0.09 nM | 0% | 24 h | 94% | 24 h | 60% | – | – | – | – |
| COc1ccc(C[C@@H]2NC(=O)[C@H](Cc3c[nH]cn3)NC(=O)[C@H](Cc3ccc(O)cc3)NC(=O)[C@@H]3CCCN3C(=O)[C@H]3CCCN3C(=O)[C@H](CCCCNC(C)C)NC(=O)[C@H](CCC(N)=O)NC(=O)[C@H](Cc3ccc(O)cc3)NC(=O)[C@@H]3CSSC[C@H](NC2=O)C(=O)N[C@@H](CO)C(=O)N[C@@H](C)C(=O)N[C@H](Cc2ccc(OC)cc2)C(=O)N[C@@H](CCCNC(C)C)C(=O)N[C@@H](CCCNC(=N)N)C(=O)N[C@@H](Cc2ccc(O)cc2)C(=O)N3)cc1 [Ex. 6, cyclo(-Tyr^1-His^2-Tyr(Me)^3-Cys^4-Ser^5-Ala^6-^DTyr(Me)^7-Orn(iPr)^8-Arg^9-Tyr^10-Cys^11-Tyr^12-Gln^13-Lys(iPr)^14-^DPro^15-Pro^16-), disulfide bond between Cys^4 and Cys^11] (cyclo(YHY(Me)CSA[dY](Me)[Orn(iPr)]RYCYQ[Lys(iPr)][dP]P); disulfide 4-11) | – | – | – | – | – | – | 0.09 ± 0.09 nM | 2% | 24 h | 24 h |
